# Test results taken from patent US20150065717A1, “NIPECOTIC ACID DERIVATIVE AND USE THEREOF FOR MEDICAL PURPOSES” (Toray Industries, Inc., priority 2012, published 2015).
# Experiments:
# recombinant human sEH = target: T1, recombinant human sEH (Homo sapiens, UniProt P34913); experiment: In vitro evaluation test for sEH inhibitory activity; type: biochemical; settings: recombinant human sEH 0.026 μg/mL, fluorescent substrate 6.25 μmol/L, room temperature
# T1 construct: purchased Cayman
# T1 sequence (P34913 1-555): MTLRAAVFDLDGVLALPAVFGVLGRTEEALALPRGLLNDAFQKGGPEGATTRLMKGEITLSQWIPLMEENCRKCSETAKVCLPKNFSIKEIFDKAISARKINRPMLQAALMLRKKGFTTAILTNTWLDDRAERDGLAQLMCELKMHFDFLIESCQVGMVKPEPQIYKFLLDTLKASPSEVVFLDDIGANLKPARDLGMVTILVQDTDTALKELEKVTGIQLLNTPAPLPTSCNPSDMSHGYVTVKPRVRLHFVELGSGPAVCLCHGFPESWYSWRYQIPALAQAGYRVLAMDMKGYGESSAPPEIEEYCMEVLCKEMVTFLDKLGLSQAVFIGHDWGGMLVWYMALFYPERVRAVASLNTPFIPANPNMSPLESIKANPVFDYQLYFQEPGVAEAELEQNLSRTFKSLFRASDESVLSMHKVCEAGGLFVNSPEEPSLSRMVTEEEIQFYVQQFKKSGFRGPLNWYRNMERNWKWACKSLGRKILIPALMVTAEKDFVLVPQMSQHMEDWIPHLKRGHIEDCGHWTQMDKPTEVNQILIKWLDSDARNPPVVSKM
# Protocol: According to the method described in a known document (Analytical Biochemistry, 2005, vol. 343, p. 66-75), the sEH inhibitory activity of each nipecotic acid derivative (I) or a pharmaceutically acceptable salt thereof was evaluated using human sEH.
# A recombinant human sEH (final concentration, 0.026 μg/mL; Cayman) was incubated with each test compound in 25 mM Bis-Tris-HCl buffer (pH 7.0) supplemented with 0.1 mg/mL BSA at room temperature for 30 minutes. Thereafter, cyano(6-methoxynaphthalen-2-yl)methyl 2-(3-phenyloxiran-2-yl)acetate (final concentration, 6.25 μmol/L; Cayman) was added thereto as a fluorescent substrate, and the resulting mixture was incubated at room temperature for 20 minutes. The reaction was then stopped by addition of ZnSO4 (final concentration, 0.2 mol/L), and the fluorescence intensity was measured (Fusion α (Packard); Excitation: 330 nm, Emission:485 nm).
# The fluorescence intensity observed with addition of neither sEH nor a test compound was regarded as the sEH enzymatic reaction rate of 0%, and the fluorescence intensity observed with addition of sEH but without addition of a test compound was regarded as the sEH enzymatic reaction rate of 100%. From the obtained fluorescence intensity, the sEH enzymatic reaction rate of each test compound was calculated to determine IC50.
# [1] = tested on: rat anti-GBM antiserum-administered nephritis model; experiment: Pharmacological effect in rat anti-GBM antiserum-administered nephritis model; type: in vivo, rat (Wistar-Kyoto strain)
# Protocol: Example Compound 1 or 2 was administered to a rat anti-GBM antiserum-administered nephritis model (Proceedings of the National Academy of Sciences of the United States of America, 2005, vol. 102, p. 7736-7741; European journal of pharmacology, 2002, vol. 449, p. 167-176), and the therapeutic effect of the nipecotic acid derivative (I) or a pharmaceutically acceptable salt thereof on chronic renal disease with glomerulonephritis and renal failure was evaluated. Rats (Wistar-Kyoto strain, male, 8 weeks old; Charles River Laboratories Japan, Inc.) with nephritis induced by administration of a rabbit anti-rat GBM antiserum prepared by methods described in documents (Proceedings of the National Academy of Sciences of the United States of America, 2005, vol. 102, p. 7736-7741; European journal of pharmacology, 2002, vol. 449, p. 167-176) into the tail vein were provided as “group with induced nephritis”. On the other hand, rats to which the anti-GBM antiserum was not administered were provided as “normal group”. Two weeks after administration of anti-GBM antiserum, blood was collected from the tail vein or jugular vein of each rat, and the sCre level was measured. The measurement of the sCre level was carried out by the enzymatic method. Two weeks after administration of anti-GBM antiserum, part of the rats were euthanized under anesthesia, and their kidneys were removed and immersed in formalin for storage. The formalin-fixed kidneys were embedded in paraffin, and sections were prepared. Pathological specimens (HE- and PAS-stained) were prepared therefrom, and histopathological examination was carried out. To rats showing pathological conditions of glomerulonephritis and renal failure in the group with induced nephritis, a suspension of Example Compound 1 in 0.5% aqueous methyl cellulose solution […] of anti-GBM antiserum until the end of the experiment. This group was provided as “Example Compound 1 (3 mg/kg)-administered group”. In addition, for comparative control, 0.5% aqueous methyl cellulose solution supplemented with 0.5% Tween 80 was similarly administered to rats in the group with induced nephritis, to provide “nephritis control group”. Similarly, 0.5% aqueous methyl cellulose solution supplemented with 0.5% Tween 80 was administered to the normal group. […] The serum Cys-C level was also measured at Week 5 after the administration of anti-GBM antiserum. The measurement of the serum Cys-C level was carried out using the antigen-antibody reaction. Five weeks after the administration of anti-GBM antiserum, the rats were euthanized under anesthesia. Kidneys were removed therefrom and immersed in formalin for storage. The formalin-fixed kidneys were embedded in paraffin, and sections were prepared. Histopathological specimens (HE- and PAS-stained) were prepared therefrom, and histopathological examination was carried out. […] The abscissa in the figure represents the number of weeks after the administration of anti-GBM antiserum, and the ordinate represents the sCre level (mean±standard error, n=6). The symbol “*” in the figure represents statistically significant difference from the nephritis control group (t-test, p<0.05). The results of histopathological examination of kidneys at Week 5 after the administration of anti-GBM antiserum are shown in FIG. 2, wherein the damaged areas in 30 to 40 glomeruli per individual were scored on a 4-point scale based on the ratio (%) of the lesion area (lesion area score: 1+, less than 25%; 2+, not less than 25% and less than 50%; 3+, not less than 50% and less than 75%; 4+, not less than 75%). Each individual corresponds to each bar, wherein the distribution of lesion area scores is shown. The ordinate in the figure represents the ratio of the lesion area score in each individual. Rats (Wistar-Kyoto strain, male, 10 weeks old; Charles River Laboratories Japan, Inc.) with glomerulonephritis induced by administration of an anti-GBM antiserum into the tail vein were provided as “group with induced nephritis”. […]
# [2] = 3 mg/kg, 5 weeks after anti-GBM antiserum, 5 animals
SMILES,IC50 (recombinant human sEH) [nM],"sCre level vs nephritis control group ([1]; 3 mg/kg orally once per day from Week 2, Week 3 after anti-GBM antiserum, t-test p<0.05, FIG. 1)","serum Cys-C level ([1]; 3 mg/kg orally once per day from Week 2, Week 5 after anti-GBM antiserum, mean±standard error, n=6) [mg/L]","histopathological examination of kidneys, injurious changes vs nephritis control group ([1]; 3 mg/kg, 5 weeks after anti-GBM antiserum)","Basophilic tubules, Mild [1, 2]","Basophilic tubules, Moderate [1, 2]","Dilatation of renal tubules, Mild [1, 2]","Dilatation of renal tubules, Moderate [1, 2]","Glomerular sclerosis, Mild [1, 2]","Glomerular sclerosis, Moderate [1, 2]","Glomerular sclerosis, Severe [1, 2]","Mild infiltration of mononuclear cells into the stroma [1, 2]","Protein casts in outer medulla, Mild [1, 2]","Protein casts in outer medulla, Moderate [1, 2]","Protein casts in outer medulla, Severe [1, 2]","scoring of the damaged area in glomeruli (lesion area score) ([1]; 3 mg/kg, Week 5 after anti-GBM antiserum, FIG. 2)","sCre level vs nephritis control group ([1]; 10 mg/kg orally once per day from Week 2, Week 5 after anti-GBM antiserum, FIG. 3)"
"CCC(=O)NC1(C(=O)N2CCC[C@@H](C(=O)NCc3ccc(C#N)cc3OC(F)(F)F)C2)CCC1 [Example Compound 1, (R)—N-(4-cyano-2-(trifluoromethoxy)benzyl)-1-(1-propionamidocyclobutanecarbonyl)piperidine-3-carboxamide]",1.1,statistically significantly lower,0.63 ± 0.08,lower degrees and frequencies of these injurious changes,2 number of individuals,3 number of individuals,1 number of individuals,4 number of individuals,0 number of individuals,5 number of individuals,0 number of individuals,5 number of individuals,1 number of individuals,4 number of individuals,0 number of individuals,suppression of glomerular injury,–
"CC(C)(NS(C)(=O)=O)C(=O)N1CCC[C@@H](C(=O)NCc2ccc(C#N)cc2OC(F)(F)F)C1 [Example Compound 2, (R)—N-(4-cyano-2-(trifluoromethoxy)benzyl)-1-(2-methyl-2-(methylsulfonamido)propanoyl)piperidine-3-carboxamide]",2.1,–,–,–,–,–,–,–,–,–,–,–,–,–,–,–,remarkably lower
